# Measured values taken from ChEMBL document CHEMBL1124302, “Nucleoside conjugates. 10. Synthesis and antitumor activity of 1-beta-D-arabinofuranosylcytosine 5'-diphosphate-1,2-dipalmitins” (J Med Chem, 1988).
# Where “and” joins values, the source holds several entries; their conditions need not be identical. Equal values may be shown once.
# How the values were obtained:
# Assay type in all cases: functional
# [1] = test system: Mus musculus; experiment: Weight change on day 8 in L1210/ara-C (I) Lymphoid Leukemia in mice( ip implanted) at a dose of 400 mg/kg/day (qd=1); conditions: route intraperitoneal
# [2] = test system: Mus musculus; experiment: No of survivors after 45 days ata dose of 80 mg/kg/day
# [3] = species on record: Mus musculus; experiment: Percentage increase in life span after 17-29 days
# [4] = test system: Mus musculus; experiment: No of survivors after 45 days ata dose of 400 mg/kg/day
# [5] = test system: Mus musculus; experiment: Weight change on day 8 in L1210/ara-C (I) Lymphoid Leukemia in mice( ip implanted) at a dose of 80 mg/kg/day (qd=1-5); conditions: route intraperitoneal
# [6] = species on record: Mus musculus; experiment: Percentage increase in life span after 17-35 days
# [7] = species on record: Mus musculus; experiment: Percentage increase in life span after 35->45 days
# [8] = species on record: Mus musculus; experiment: Percentage increase in life span after 29->45 days
# [9] = test system: Mus musculus; experiment: No of survivors after 45 dose ata dose of 133 mg/kg/day
# [10] = test system: Mus musculus; experiment: Weight change on day 8 in L1210/ara-C (I) Lymphoid Leukemia in mice( ip implanted) at a dose of 60 mg/kg/day (qd=1-5); conditions: route intraperitoneal
# [11] = test system: Mus musculus; experiment: Weight change on day 8 in L1210/ara-C (I) Lymphoid Leukemia in mice( ip implanted) at a dose of 133 mg/kg/day (qd=1,5,9); conditions: route intraperitoneal
# [12] = species on record: Mus musculus; experiment: Percentage increase in life span after 7-8 days
# [13] = test system: Mus musculus; experiment: No of survivors after 45 dose ata dose of 300 mg/kg/day
# [14] = test system: Mus musculus; experiment: Weight change on day 8 in L1210/ara-C (I) Lymphoid Leukemia in mice( ip implanted) at a dose of 300 mg/kg/day (qd=1); conditions: route intraperitoneal
# [15] = species on record: Mus musculus; experiment: Dose producing greatest increase in life span expressed as optimum dose (L1210/ara-C II) (qd 1)
# [16] = species on record: Mus musculus; experiment: Percentage increase in life span after 8->45 days
# [17] = test system: Mus musculus; experiment: No of survivors after 45 days ata dose of 300 60 mg/kg/day
# [18] = test system: Mus musculus; experiment: No of survivors after 45 days ata dose of 300 mg/kg/day
# [19] = species on record: Mus musculus; experiment: Dose producing greatest increase in life span expressed as optimum dose (L1210/ara-C I) (qd 1,5,9)
# [20] = species on record: Mus musculus; experiment: Percentage increase in life span after 8-9 days
# [21] = test system: Mus musculus; experiment: No of survivors after 45 dose ata dose of 60 mg/kg/day
# [22] = test system: Mus musculus; experiment: Weight change on day 8 in L1210/ara-C (I) Lymphoid Leukemia in mice( ip implanted) at a dose of 19 and 38 mg/kg/day (qd=1-5); conditions: route intraperitoneal
# [23] = test system: Mus musculus; experiment: No of survivors after 45 days ata dose of 95 and 190 mg/kg/day
# [24] = species on record: Mus musculus; experiment: Percentage increase in life span after 9-11 days
# [25] = test system: Mus musculus; experiment: Weight change on day 8 in L1210/ara-C (I) Lymphoid Leukemia in mice( ip implanted) at a dose of 95 and 190 mg/kg/day (qd=1); conditions: route intraperitoneal
# [26] = species on record: Mus musculus; experiment: Percentage increase in life span after 7-14 days
# [27] = test system: Mus musculus; experiment: No of survivors after 45 days ata dose of 19 and 38 mg/kg/day
# [28] = species on record: Mus musculus; experiment: Percentage increase in life span after 10 days
# [29] = test system: Mus musculus; experiment: Weight change on day 8 in L1210/ara-C (I) Lymphoid Leukemia in mice( ip implanted) at a dose of 95 and 190 mg/kg/day; conditions: route intraperitoneal
# [30] = species on record: Mus musculus; experiment: Percentage increase in life span after 11-12 days
# [31] = test system: Mus musculus; experiment: weight change on day 8 in L1210/ara-C (I) Lymphoid Leukemia in mice( ip implanted) at a dose of 19 and 38 mg/kg/day; conditions: route intraperitoneal
# [32] = test system: Mus musculus; experiment: weight change on day 8 in L1210/ara-C (I) Lymphoid Leukemia in mice( ip implanted) at a dose of 60 mg/kg/day (qd=1-5); conditions: route intraperitoneal
# [33] = test system: Mus musculus; experiment: No of survivors after 45 days ata dose of 60 mg/kg/day
# [34] = test system: Mus musculus; experiment: No of survivors after 45 days at a dose of 400 mg/kg/day
# [35] = test system: Mus musculus; experiment: No of survivors after 45 days ata dose of 100 mg/kg/day
# [36] = species on record: Mus musculus; experiment: Percentage increase in life span after 13-15 days
# [37] = species on record: Mus musculus; experiment: Percentage increase in life span after 9-12 days
# [38] = species on record: Mus musculus; experiment: Percentage increase in life span after 12-13days
# [39] = test system: Mus musculus; experiment: weight change on day 8 in L1210/ara-C (I) Lymphoid Leukemia in mice( ip implanted) at a dose of 100 mg/kg/day (qd=1,5,9); conditions: route intraperitoneal
# [40] = species on record: Mus musculus; experiment: Dose producing greatest increase in life span expressed as optimum dose (L1210/ara-C I) (qd 1-9)
# [41] = species on record: Mus musculus; experiment: Dose producing greatest increase in life span expressed as optimum dose (L1210/ara-C I) (qd 1-5)
# [42] = test system: Mus musculus; experiment: Weight change on day 8 in L1210/ara-C (I) Lymphoid Leukemia in mice( ip implanted) at a dose of 60 mg/kg/day (qd=1-9); conditions: route intraperitoneal
# [43] = test system: Mus musculus; experiment: Weight change on day 8 in L1210/ara-C (I) Lymphoid Leukemia in mice( ip implanted) at a dose of 60 mg/kg/day (qd=1-15); conditions: route intraperitoneal
# [44] = test system: Mus musculus; experiment: Weight change on day 8 in L1210/ara-C (I) Lymphoid Leukemia in mice( ip implanted) at a dose of 100 mg/kg/day (qd=1,5,9); conditions: route intraperitoneal
# [45] = species on record: Mus musculus; experiment: Dose producing greatest increase in life span expressed as optimum dose (L1210/ara-C I) (qd 1-15)
# [46] = test system: Mus musculus; experiment: (§1) No of survivors after 45 days at a dose of 60 mg/kg/day
# [47] = species on record: Mus musculus; experiment: Percentage increase in life span after 17-21 days
# [48] = test system: Mus musculus; experiment: Weight change on day 8 in L1210/ara-C (I) Lymphoid Leukemia in mice( ip implanted) at a dose of 200 mg/kg/day (qd=1); conditions: route intraperitoneal
# [49] = species on record: Mus musculus; experiment: Percentage increase in life span after 7 days
# [50] = test system: Mus musculus; experiment: (§2) No of survivors after 45 days at a dose of 100 mg/kg/day
# [51] = species on record: Mus musculus; experiment: Dose producing greatest increase in life span expressed as optimum dose (L1210/ara-C I) (qd 1)
# [52] = test system: Mus musculus; experiment: (§3) No of survivors after 45 days at a dose of 200 mg/kg/day
# [53] = test system: Mus musculus; experiment: No of survivors after 45 days at a dose of 300 mg/kg/day
# [54] = test system: Mus musculus; experiment: as §1; remark: listed apart in the source
# [55] = species on record: Mus musculus; experiment: Dose producing greatest increase in life span expressed as optimum dose (L1210/ara-C II) (qd 1-5)
# [56] = species on record: Mus musculus; experiment: Percentage increase in life span after 15-18 days
# [57] = test system: Mus musculus; experiment: as §2; remark: listed apart in the source
# [58] = test system: Mus musculus; experiment: as §3; remark: listed apart in the source
smiles,measurement,setting,value
CCCCCCCCCCCCCCCC(=O)OC[C@@H](COP(=O)(O)OP(=O)(O)OC[C@H]1O[C@@H](n2ccc(N)nc2=O)[C@@H](O)[C@@H]1O)OC(=O)CCCCCCCCCCCCCCC,Weight change,[1],0.18 g mouse-1
same,No. of survivors,[2],0
same,ILS,[3],121%
same,No. of survivors,[4],0
same,Weight change,[5],-0.48 g mouse-1
same,ILS,[6],100%
CCCCCCCCCCCCCCCC(=O)OC[C@H](COP(=O)(O)OP(=O)(O)OC[C@H]1O[C@@H](n2ccc(N)nc2=O)[C@@H](O)[C@@H]1O)OC(=O)CCCCCCCCCCCCCCC,ILS,[7],>374%
same,ILS,[8],>400%
same,No. of survivors,[9],5
same,Weight change,[10],-2.72 g mouse-1
same,Weight change,[11],-0.53 g mouse-1
same,ILS,[12],-11%
same,No. of survivors,[13],4
same,Weight change,[14],-0.04 g mouse-1
same,Optimal dose,[15],300 mg·µM/kg
same,ILS,[16],>400%
same,No. of survivors,[17],0
same,No. of survivors,[18],0
same,Optimal dose,[19],133 mg·µM/kg
same,ILS,[20],-11%
same,No. of survivors,[21],5
CCCCCCCCCCCCCCCC(=O)OC[C@H](COP(=O)(O)O)OC(=O)CCCCCCCCCCCCCCC.Nc1ccn([C@@H]2O[C@H](COP(=O)(O)O)[C@@H](O)[C@@H]2O)c(=O)n1,Weight change,[22],-1.08 g mouse-1
same,No. of survivors,[23],0
same,ILS,[24],5%
same,Weight change,[25],-0.5 g mouse-1
same,ILS,[26],16%
same,No. of survivors,[27],0
CCCCCCCCCCCCCCCC(=O)OC[C@@H](COP(=O)(O)O)OC(=O)CCCCCCCCCCCCCCC.Nc1ccn([C@@H]2O[C@H](COP(=O)(O)O)[C@@H](O)[C@@H]2O)c(=O)n1,ILS,[28],5%
same,Weight change,[29],-0.82 g mouse-1
same,ILS,[30],16%
same,Weight change,[31],-1.58 g mouse-1
same,No. of survivors,[23],0
same,No. of survivors,[27],0
CCCCCCCCCCCCCCCC(=O)OCC(COP(=O)(O)OP(=O)(O)OC[C@H]1O[C@@H](n2ccc(N)nc2=O)[C@@H](O)[C@@H]1O)OC(=O)CCCCCCCCCCCCCCC (mixture of isomers),Weight change,[32],-2.92 g mouse-1
same,Weight change,[1],-2.07 g mouse-1
same,No. of survivors,[33],2
same,No. of survivors,[34],4
same,No. of survivors,[35],2
same,Optimal dose,[19],100 mg·µM/kg
same,ILS,[36],233%
same,ILS,[37],>400%
same,ILS,[38],317%
same,Weight change,[39],-1.35 g mouse-1
Nc1ccn([C@@H]2O[C@H](CO)[C@@H](O)[C@@H]2O)c(=O)n1 [CYTARABINE],Optimal dose,[40],60 µM/kg
same,Optimal dose,[41],60 µM/kg
same,Weight change,[42],-1.8 g mouse-1
same,Weight change,[10],-0.87 g mouse-1
same,Weight change,[43],-0.93 g mouse-1
same,Weight change,[44],2.6 g mouse-1
same,Optimal dose,[45],60 µM/kg
same,ILS,[12],-22% and -11%
same,No. of survivors,[46],0
same,ILS,[47],147%
same,Weight change,[48],3.6 g mouse-1
same,ILS,[49],-22%
same,No. of survivors,[50],0
same,Optimal dose,[51],200 µM/kg
same,No. of survivors,[52],0
same,Optimal dose,[19],100 µM/kg
same,No. of survivors,[53],0
same,No. of survivors,[54],0
same,ILS,[36],65%
same,Optimal dose,[55],100 µM/kg and 200 µM/kg and 300 µM/kg
same,ILS,[37],17%
same,ILS,[38],50%
same,ILS,[56],82%
same,No. of survivors,[57],0
same,No. of survivors,[58],0
